# In patent US10294202B2, “Pyrrolidinones as herbicides” (FMC Corporation, priority 2013, dated 2019):
# What was measured:
# corn = assay: Test A pre-/postemergence herbicide test; format: in vivo, Zea mays; details: for Corn plant response rating: Preemergence, visual rating on 0 to 100 scale (0 no effect, 100 complete control)
# How it was run: (§1)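 Seeds in loam–sand blend received preemergence directed soil spray; separately, plants 2–10 cm at one- to two-leaf stage received postemergence spray, both with test chemicals in non-phytotoxic solvent with surfactant. After ~10 days in greenhouse, injury rated visually against untreated controls, 0 (no effect) to 100 (complete control).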
# barnyardgrass = assay: Test A pre-/postemergence herbicide test; format: in vivo, Echinochloa crus-galli; details: for Barnyardgrass plant response rating: Preemergence, visual rating on 0 to 100 scale (0 no effect, 100 complete control)
# How it was run: as §1
# giant foxtail = assay: Test A pre-/postemergence herbicide test; format: in vivo, Setaria faberii; details: for Foxtail, Giant plant response rating: Preemergence, visual rating on 0 to 100 scale (0 no effect, 100 complete control)
# How it was run: as §1
# pigweed = assay: Test A pre-/postemergence herbicide test; format: in vivo, Amaranthus retroflexus; details: for Pigweed plant response rating: Preemergence, visual rating on 0 to 100 scale (0 no effect, 100 complete control)
# How it was run: as §1
# blackgrass = assay: Test C pre-/postemergence herbicide test; format: in vivo, Alopecurus myosuroides
# Excerpt: (§2) Seeds of plant species selected from blackgrass (Alopecurus myosuroides), ryegrass, Italian (Italian ryegrass, Lolium multiflorum), wheat (winter wheat, Triticum aestivum), galium (catchweed bedstraw, Galium aparine), corn (Zea mays), crabgrass, large (large crabgrass, Digitaria sanguinalis), foxtail, giant (giant foxtail, Setaria faberii), johnsongrass (Sorghum halepense), lambsquarters (Chenopodium album), morningglory (Ipomoea coccinea), nutsedge, yellow (yellow nutsedge, Cyperus esculentus), pigweed (Amaranthus retroflexus), ragweed (common ragweed, Ambrosia elatior), soybean (Glycine max), barnyardgrass (Echinochloa crus-galli), oilseed rape (Brassica napus), waterhemp (common waterhemp, Amaranthus rudis), kochia (Kochia scoparia), oat, wild (wild oat, Avena fatua), surinam grass (Brachiaria decumbens), foxtail, green (green foxtail, Setaria viridis), goosegrass (Eleusine indica), bromegrass, downy (downy bromegrass, Bromus tectorum), nightshade (eastern black nightshade, Solanum ptycanthum), cocklebur (common cocklebur, Xanthium strumarium), cupgrass, woolly (woolly cupgrass, Eriochloa villosa), bermudagrass (Cynodon dactylon), sunflower, (common oilseed sunflower, Helianthus annuus), Russian thistle (Salsola kali) and velvetleaf (Abutilon theophrasti) were planted into a blend of loam soil and sand and treated preemergence with test chemicals formulated in a non-phytotoxic solvent mixture which included a surfactant. At the same time, plants selected from these crop and weed species and also barley (winter barley, Hordeum vulgare), […]), chickweed (common chickweed, Stellaria media), deadnettle (henbit deadnettle, Lamium amplexicaule), and canarygrass (littleseed canarygrass, Phalaris minor) were planted in pots containing Redi-Earth® planting medium (Scotts Company, 14111 Scottslawn Road, Marysville, Ohio 43041) comprising spaghnum peat moss, vermiculite, wetting agent and starter nutrients and treated with postemergence applications of test chemicals formulated in the same manner. Plants ranged in height from 2 to 18 cm (1- to 4-leaf stage) for postemergence treatments. Treated plants and controls were maintained in a greenhouse for 13 to 15 days, after which time all species were compared to controls and visually evaluated. Plant response ratings, summarized in Table C, are based on a scale of 0 to 100 where 0 is no effect and 100 is complete control. A dash (-) response means no test result.
# johnsongrass = assay: Test C pre-/postemergence herbicide test; format: in vivo, Sorghum halepense
# Excerpt: as §2
# foxtail, giant = assay: Test C pre-/postemergence herbicide test; format: in vivo, Setaria faberii
# Excerpt: as §2
# velvetleaf = assay: Test C pre-/postemergence herbicide test; format: in vivo, Abutilon theophrasti
# Excerpt: as §2
# nutsedge, yellow = assay: Test C pre-/postemergence herbicide test; format: in vivo, Cyperus esculentus
# Excerpt: as §2
# [1] = Postemergence, 125 g ai/ha, 0 to 100 scale, 0 no effect, 100 complete control
# [2] = Postemergence, 500 g ai/ha, 0 to 100 scale (0 no effect, 100 complete control)
# [3] = preemergence, 500 g ai/ha, 0 to 100 scale
# [4] = preemergence, 500 g ai/ha, 0 to 100 scale (0 no effect, 100 complete control)
# [5] = Preemergence, 31 g ai/ha, scale 0 to 100 (0 no effect, 100 complete control)
# [6] = Preemergence, 62 g ai/ha, scale 0 to 100
# [7] = Preemergence, 125 g ai/ha, scale 0 to 100 (0 no effect, 100 complete control)
# [8] = Postemergence, 31 g ai/ha, scale 0 (no effect) to 100 (complete control)
# [9] = Postemergence, 62 g ai/ha, scale 0 to 100 (0 no effect, 100 complete control)
# [10] = Postemergence, 125 g ai/ha, scale 0 to 100 (0 no effect, 100 complete control)
# [11] = Postemergence, 250 g ai/ha, scale 0 to 100 (0 no effect, 100 complete control)
# [12] = Preemergence, 31 g ai/ha, scale 0 to 100, 0 is no effect and 100 is complete control
smiles,measurement,setting,value
O=C1NCC(c2cccc(C(F)(F)F)c2)C1C(=O)Nc1ccccc1F (racemic) [Compound 3],"Plant response rating, Corn",corn; [1],0
same,"Plant response rating, Corn",corn; [2],60
same,Corn plant response rating,corn; 125 g ai/ha,0
same,"Plant response rating, Corn",corn; [3],50
same,"Plant response rating, Barnyardgrass",barnyardgrass; [1],70
same,"Plant response rating, Barnyardgrass",barnyardgrass; [2],80
same,Barnyardgrass plant response rating,barnyardgrass; 125 g ai/ha,60
same,"Plant response rating, Barnyardgrass",barnyardgrass; [4],80
same,"Plant response rating, Foxtail, Giant",giant foxtail; [1],60
same,"Plant response rating, Foxtail, Giant",giant foxtail; [2],80
same,"Foxtail, Giant plant response rating",giant foxtail; 125 g ai/ha,90
same,"Plant response rating, Foxtail, Giant",giant foxtail; [3],90
same,"Plant response rating, Pigweed",pigweed; [2],50
same,Pigweed plant response rating,pigweed; 125 g ai/ha,0
same,"Plant response rating, Pigweed",pigweed; [3],0
O=C1NCC(c2ccc(F)c(F)c2)C1C(=O)Nc1cccc(F)c1 (racemic) [Compound 12],"Plant response rating, Corn",corn; [1],0
same,"Plant response rating, Corn",corn; [2],0
same,Corn plant response rating,corn; 125 g ai/ha,0
same,"Plant response rating, Corn",corn; [3],0
same,"Plant response rating, Barnyardgrass",barnyardgrass; [1],60
same,"Plant response rating, Barnyardgrass",barnyardgrass; [2],90
same,Barnyardgrass plant response rating,barnyardgrass; 125 g ai/ha,60
same,"Plant response rating, Barnyardgrass",barnyardgrass; [4],90
same,"Plant response rating, Foxtail, Giant",giant foxtail; [1],60
same,"Plant response rating, Foxtail, Giant",giant foxtail; [2],80
same,"Foxtail, Giant plant response rating",giant foxtail; 125 g ai/ha,70
same,"Plant response rating, Foxtail, Giant",giant foxtail; [3],90
same,"Plant response rating, Pigweed",pigweed; [1],0
same,"Plant response rating, Pigweed",pigweed; [2],0
same,Pigweed plant response rating,pigweed; 125 g ai/ha,0
same,"Plant response rating, Pigweed",pigweed; [3],0
O=C1NCC(c2ccc(F)cc2)C1C(=O)Nc1ccccc1F (racemic) [Compound 16],Blackgrass plant response rating,blackgrass; [5],0
same,"Plant response rating, Blackgrass",blackgrass; [6],5
same,"Plant response rating, Blackgrass",blackgrass; [7],10
same,"Plant response rating, Corn",corn; [1],0
same,"Plant response rating, Corn",corn; [2],30
same,Corn plant response rating,corn; 125 g ai/ha,0
same,"Plant response rating, Corn",corn; [3],30
same,"Plant response rating, Johnsongrass",johnsongrass; [6],0
same,"Plant response rating, Johnsongrass",johnsongrass; [7],0
same,"Plant response rating, Barnyardgrass",barnyardgrass; [1],70
same,"Plant response rating, Barnyardgrass",barnyardgrass; [2],90
same,Barnyardgrass plant response rating,barnyardgrass; 125 g ai/ha,80
same,"Plant response rating, Barnyardgrass",barnyardgrass; [4],90
same,"Plant response rating, Foxtail, Giant",giant foxtail; [1],60
same,"Plant response rating, Foxtail, Giant",giant foxtail; [2],90
same,"Foxtail, Giant plant response rating",giant foxtail; 125 g ai/ha,90
same,"Plant response rating, Foxtail, Giant",giant foxtail; [3],90
same,"Foxtail, Giant plant response rating","foxtail, giant; [5]",0
same,"Plant response rating, Foxtail, Giant","foxtail, giant; [6]",70
same,"Plant response rating, Foxtail, Giant","foxtail, giant; [7]",90
same,"Plant response rating, Foxtail, Giant","foxtail, giant; Preemergence, 250 g ai/ha, scale 0 to 100 (0 no effect, 100 complete control)",95
same,"Plant response rating, Velvetleaf",velvetleaf; [6],0
same,"Plant response rating, Velvetleaf",velvetleaf; [7],0
same,"Plant response rating, Nutsedge, Yellow","nutsedge, yellow; [6]",0
same,"Plant response rating, Nutsedge, Yellow","nutsedge, yellow; [7]",0
same,"Plant response rating, Pigweed",pigweed; [1],0
same,"Plant response rating, Pigweed",pigweed; [2],0
same,Pigweed plant response rating,pigweed; 125 g ai/ha,0
same,"Plant response rating, Pigweed",pigweed; [3],0
O=C1NCC(c2ccccc2)C1C(=O)Nc1ccccc1F (racemic) [Compound 81],"Plant response rating, Blackgrass",blackgrass; [8],0
same,"Plant response rating, Blackgrass",blackgrass; [9],0
same,"Plant response rating, Blackgrass",blackgrass; [10],0
same,"Plant response rating, Blackgrass",blackgrass; [11],0
same,Blackgrass plant response rating,blackgrass; [12],0
same,"Plant response rating, Blackgrass",blackgrass; [6],0
same,"Plant response rating, Blackgrass",blackgrass; [7],0
same,"Plant response rating (scale of 0 to 100), Blackgrass","blackgrass; Preemergence, 250 g ai/ha",0
same,"Plant response rating, Corn",corn; [1],0
same,"Plant response rating, Corn",corn; [2],0
same,Corn plant response rating,corn; 125 g ai/ha,0
same,"Plant response rating, Corn",corn; [3],0
same,"Plant response rating, Johnsongrass",johnsongrass; [8],0
same,"Plant response rating, Johnsongrass",johnsongrass; [9],0
same,"Plant response rating, Johnsongrass",johnsongrass; [10],0
same,"Plant response rating, Johnsongrass",johnsongrass; [11],0
same,Johnsongrass plant response rating,johnsongrass; [12],0
same,"Plant response rating, Johnsongrass",johnsongrass; [6],0
same,"Plant response rating, Johnsongrass",johnsongrass; [7],0
same,"Plant response rating (scale of 0 to 100), Johnsongrass","johnsongrass; Preemergence, 250 g ai/ha",0
same,"Plant response rating, Barnyardgrass",barnyardgrass; [1],30
same,"Plant response rating, Barnyardgrass",barnyardgrass; [2],80
same,Barnyardgrass plant response rating,barnyardgrass; 125 g ai/ha,40
same,"Plant response rating, Barnyardgrass",barnyardgrass; [4],80
same,"Plant response rating, Foxtail, Giant",giant foxtail; [1],20
same,"Plant response rating, Foxtail, Giant",giant foxtail; [2],70
same,"Foxtail, Giant plant response rating",giant foxtail; 125 g ai/ha,30
same,"Plant response rating, Foxtail, Giant",giant foxtail; [3],90
same,"Plant response rating, Foxtail, Giant","foxtail, giant; [8]",0
same,"Plant response rating, Foxtail, Giant","foxtail, giant; [9]",0
same,"Plant response rating, Foxtail, Giant","foxtail, giant; [10]",0
same,"Plant response rating, Foxtail, Giant","foxtail, giant; [11]",7
same,"Foxtail, Giant plant response rating","foxtail, giant; [12]",0
same,"Plant response rating, Foxtail, Giant","foxtail, giant; [6]",17
same,"Plant response rating, Foxtail, Giant","foxtail, giant; [7]",37
same,"Plant response rating (scale of 0 to 100), Foxtail, Giant","foxtail, giant; Preemergence, 250 g ai/ha",73
same,"Plant response rating, Velvetleaf",velvetleaf; [8],0
same,"Plant response rating, Velvetleaf",velvetleaf; [9],0
same,"Plant response rating, Velvetleaf",velvetleaf; [10],0
same,"Plant response rating, Velvetleaf",velvetleaf; [11],0
same,Velvetleaf plant response rating,velvetleaf; [12],0
same,"Plant response rating, Velvetleaf",velvetleaf; [6],0
same,"Plant response rating, Velvetleaf",velvetleaf; [7],0
same,"Plant response rating (scale of 0 to 100), Velvetleaf","velvetleaf; Preemergence, 250 g ai/ha",0
same,"Plant response rating, Nutsedge, Yellow","nutsedge, yellow; [8]",0
same,"Plant response rating, Nutsedge, Yellow","nutsedge, yellow; [9]",0
same,"Plant response rating, Nutsedge, Yellow","nutsedge, yellow; [10]",0
same,"Plant response rating, Nutsedge, Yellow","nutsedge, yellow; [11]",0
same,"Nutsedge, Yellow plant response rating","nutsedge, yellow; [12]",0
same,"Plant response rating, Nutsedge, Yellow","nutsedge, yellow; [6]",0
same,"Plant response rating, Nutsedge, Yellow","nutsedge, yellow; [7]",0
same,"Plant response rating (scale of 0 to 100), Nutsedge, Yellow","nutsedge, yellow; Preemergence, 250 g ai/ha",0
same,"Plant response rating, Pigweed",pigweed; [1],0
same,"Plant response rating, Pigweed",pigweed; [2],0
same,Pigweed plant response rating,pigweed; 125 g ai/ha,0
same,"Plant response rating, Pigweed",pigweed; [3],0
